Measurements as given in US9120756B2, “Substituted phenylureas and phenylamides as vanilloid receptor ligands” (Gruenenthal GmbH, priority 2009, dated 2015).
Values belong to the compound of their own block, whether it stands above or below them.

Key:
Format in all cases: cell-based
[1] = target: rat-species vanilloid receptor 1 (VR1/TRPV1) (Rattus norvegicus (Rat), UniProt O35433); assay: FLIPR Ca2+ influx assay on rat dorsal root ganglia cells, capsaicin stimulus (method I); details: for Ki: capsaicin (Cap)
Description: (§1) The agonistic or antagonistic effect of the substances to be tested on the rat-species vanilloid receptor 1 (VR1/TRPV1) can be determined using the following assay. In this assay, the influx of Ca^2+ through the receptor channel is quantified with the aid of a Ca^2+-sensitive dye (type Fluo-4, Molecular Probes Europe BV, Leiden, the Netherlands) in a fluorescent imaging plate reader (FLIPR, Molecular Devices, Sunnyvale, USA).
Complete medium: 50 ml HAMS F12 nutrient mixture (Gibco Invitrogen GmbH, Karlsruhe, Germany) with
10% by volume of FCS (foetal calf serum, Gibco Invitrogen GmbH, Karlsruhe, Germany, heat-inactivated);
2 mM L-glutamine (Sigma, Munich, Germany);
1% by weight of AA solution (antibiotic/antimyotic solution, PAA, Pasching, Austria) and 25 ng/ml NGF medium (2.5 S, Gibco Invitrogen GmbH, Karlsruhe, Germany)
Cell culture plate: Poly-D-lysine-coated, black 96-well plates having a clear base (96-well black/clear plate, BD Biosciences, Heidelberg, Germany) are additionally coated with laminin (Gibco Invitrogen GmbH, Karlsruhe, Germany), the laminin being diluted with PBS (Ca—Mg-free PBS, Gibco Invitrogen GmbH, Karlsruhe, Germany) to a concentration of 100 μg/ml. Aliquots having a laminin concentration of 100 μg/ml are removed and stored at −20° C. The aliquots are diluted with PBS in a ratio of 1:10 to 10 μg/ml of laminin and respectively 50 μL of the solution are pipetted into a recess in the cell culture plate. The cell culture plates are incubated for at least two hours at 37° C., the excess solution is removed by suction and the recesses are each washed twice with PBS. The coated cell culture plates are stored with excess PBS which is not removed until just before the feeding of the cells.
The vertebral column is removed from decapitated rats and placed immediately into cold HBSS buffer (Hank's buffered saline solution, Gibco Invitrogen GmbH, Karlsruhe, Germany), i.e. buffer located in an ice bath, mixed with 1% by volume (percent by volume) of an AA solution (antibiotic/antimyotic solution, PAA, Pasching, Austria). The vertebral column is cut longitudinally and removed together with fasciae from the vertebral canal. Subsequently, the dorsal root ganglia (DRG) are removed and again stored in cold HBSS buffer mixed with 1% by volume of an AA solution. The DRG, from which all blood remnants and spinal nerves have been removed, are transferred in each case to 500 μL of cold type 2 collagenase (PAA, Pasching, Austria) and incubated for 35 minutes at 37° C. After the addition of 2.5% by volume of trypsin (PAA, Pasching, Austria), incubation is continued for 10 minutes at 37° C. After complete incubation, the enzyme solution is carefully pipetted off and 500 μL of complete medium are added to each of the remaining DRG. […] The contents of each Falcon tube are respectively filtered through a 70 μm Falcon filter element and centrifuged for 10 minutes at 1,200 rpm and RT. The resulting pellet is respectively taken up in 250 μL of complete medium and the cell count is determined.
The number of cells in the suspension is set to 3×10^5 per ml and 150 μL of this suspension are in each case introduced into a recess in the cell culture plates coated as described hereinbefore. […] Subsequently, the cells are loaded with 2 μM of Fluo-4 and 0.01% by volume of Pluronic F127 (Molecular Probes Europe BV, Leiden, the Netherlands) in HBSS buffer (Hank's buffered saline solution, Gibco Invitrogen GmbH, Karlsruhe, Germany) for 30 min at 37° C., washed 3 times with HBSS buffer and after further incubation for 15 minutes at RT used for Ca^2+ measurement in a FLIPR assay. The Ca^2+-dependent fluorescence is in this case measured before and after the addition of substances (λex=488 nm, λem=540 nm). Quantification is carried out by measuring the highest fluorescence intensity (FC, fluorescence counts) over time.
The FLIPR protocol consists of 2 substance additions.

hVR1 [2] = target: T1, hVR1 (Homo sapiens (Human), UniProt Q8NER1); assay: FLIPR Ca2+ influx assay on CHO K1 cells transfected with the VR1 gene, capsaicin stimulus (method II); set-up: key to Ki (human being) Cap: result in words (NE / AG): AG=agonist; pAG=partial agonist; NE=no effect; details: for Ki: capsaicin (Cap), read-out: Ki (human being) [nM] Cap; for inhibition at 5 µM: CHO-K1, read-out: Ki (human being) Cap column: inhibition (as a percentage) @ 5 μM, capsaicin, inhibition determined at 5 μM; for Ki (human being) Cap: result in words (NE / AG): capsaicin
Excerpt: In the process, the Ca^2+ influx is quantified in the FLIPR assay with the aid of a Ca^2+-sensitive dye (type Fluo-4, Molecular Probes Europe BV, Leiden, the Netherlands) in a fluorescent imaging plate reader (FLIPR, Molecular Devices, Sunnyvale, USA), as described hereinafter.
as §1, with “the” for “the rat-species”, “(VR1)” for “(VR1/TRPV1)”, “can also” for “can”, “the” for “the receptor”
Chinese hamster ovary cells (CHO K1 cells, European Collection of Cell Cultures (ECACC) United Kingdom) are stably transfected with the VR1 gene. For functional testing, these cells are plated out on poly-D-lysine-coated black 96-well plates having a clear base (BD Biosciences, Heidelberg, Germany) at a density of 25,000 cells/well. The cells are incubated overnight at 37° C. and 5% CO2 in a culture medium (Ham's F12 nutrient mixture, 10% by volume of FCS (foetal calf serum), 18 μg/ml of L-proline). The next day the cells are incubated with Fluo-4 (Fluo-4 2 μM, 0.01% by volume of Pluronic F127, Molecular Probes in HBSS (Hank's buffered saline solution), Gibco Invitrogen GmbH, Karlsruhe, Germany) for 30 minutes at 37° C. Subsequently, the plates are washed three times with HBSS buffer and after further incubation for 15 minutes at RT used for Ca^2+ measurement in a FLIPR assay. The Ca^2+-dependent fluorescence is measured before and after the addition of the substances to be tested (λex wavelength=488 nm, λem=540 nm). Quantification is carried out by measuring the highest fluorescence intensity (FC, fluorescence counts) over time.
The FLIPR protocol consists of 2 substance additions. First the compounds to be tested (10 μM) are pipetted onto the cells and the Ca^2+ influx is compared with the control (capsaicin 10 μM) (% activation based on the Ca^2+ signal after the addition of 10 μM of capsaicin). After 5 minutes' incubation, 100 nM of capsaicin are applied and the Ca^2+ influx is also determined.
Desensitising agonists and antagonists led to suppression of the Ca^2+ influx.
Starting from the percentage displacement caused by different concentrations of the compounds to be tested of general formula I, IC50 inhibitory concentrations which cause a 50-percent displacement of capsaicin were calculated. Ki values for the test substances were obtained by conversion by means of the Cheng-Prusoff equation (Cheng, Prusoff; Biochem. Pharmacol. 22, 3099-3108, 1973).

hVR1 [3] = target: T1, hVR1; assay: FLIPR assay hVR1, after pH stimulus; set-up: key to IC50 (human being) hVR1 pH: result in words (NE / AG): AG=agonist; pAG=partial agonist; NE=no effect; details: for inhibition at 10 µM: read-out: IC50 (human being) hVR1 pH: inhibition (as a percentage) @ 10 μM, inhibition determined at 10 μM
Description: In this assay, the influx of Ca^2+ through the channel is quantified with the aid of a Ca^2+-sensitive dye (type Fluo-4, Molecular Probes Europe BV, Leiden, the Netherlands) in a fluorescent imaging plate reader (FLIPR, Molecular Devices, Sunnyvale, USA). Chinese hamster ovary cells (CHO K1 cells, European Collection of Cell Cultures (ECACC) United Kingdom) are stably transfected with the VR1 gene. For functional testing, these cells are plated out on poly-D-lysine-coated black 96-well plates having a clear base (BD Biosciences, Heidelberg, Germany) at a density of 25,000 cells/well. […] Subsequently, the plates are washed three times with HBSS buffer and after further incubation for 15 minutes at RT used for Ca^2+ measurement in a FLIPR assay. […] Quantification is carried out by measuring the highest fluorescence intensity (FC, fluorescence counts) over time. The FLIPR protocol consists of 2 substance additions. […] Desensitising agonists and antagonists led to suppression of the Ca^2+ influx. […] Ki values for the test substances were obtained by conversion by means of the Cheng-Prusoff equation (Cheng, Prusoff; Biochem. Pharmacol. 22, 3099-3108, 1973).

rat-species vanilloid receptor 1 (VR1/TRPV1), sequence (O35433 whole entry): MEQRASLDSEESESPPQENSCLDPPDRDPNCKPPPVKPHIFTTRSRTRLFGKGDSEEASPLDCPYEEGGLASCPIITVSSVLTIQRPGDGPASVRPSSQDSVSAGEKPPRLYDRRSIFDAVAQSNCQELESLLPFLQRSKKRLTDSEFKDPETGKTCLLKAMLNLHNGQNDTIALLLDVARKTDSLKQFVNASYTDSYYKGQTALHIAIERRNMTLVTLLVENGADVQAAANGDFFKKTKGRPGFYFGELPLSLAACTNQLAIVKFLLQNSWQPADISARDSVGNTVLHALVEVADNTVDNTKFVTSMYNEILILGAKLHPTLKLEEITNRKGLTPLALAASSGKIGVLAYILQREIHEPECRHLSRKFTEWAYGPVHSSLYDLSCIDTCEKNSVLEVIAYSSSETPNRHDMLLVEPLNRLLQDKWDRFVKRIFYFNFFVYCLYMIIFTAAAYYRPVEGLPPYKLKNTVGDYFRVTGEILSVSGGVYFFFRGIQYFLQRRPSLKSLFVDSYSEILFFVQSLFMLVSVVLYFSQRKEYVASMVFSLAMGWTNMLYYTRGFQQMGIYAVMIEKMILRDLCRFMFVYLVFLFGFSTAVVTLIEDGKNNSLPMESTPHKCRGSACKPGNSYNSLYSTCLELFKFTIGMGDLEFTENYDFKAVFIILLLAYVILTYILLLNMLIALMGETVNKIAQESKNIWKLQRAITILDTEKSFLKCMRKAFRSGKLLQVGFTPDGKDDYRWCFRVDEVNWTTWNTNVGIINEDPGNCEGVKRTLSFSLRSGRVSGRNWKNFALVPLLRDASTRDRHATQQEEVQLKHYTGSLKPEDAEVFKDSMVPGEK
T1 sequence (Q8NER1 whole entry): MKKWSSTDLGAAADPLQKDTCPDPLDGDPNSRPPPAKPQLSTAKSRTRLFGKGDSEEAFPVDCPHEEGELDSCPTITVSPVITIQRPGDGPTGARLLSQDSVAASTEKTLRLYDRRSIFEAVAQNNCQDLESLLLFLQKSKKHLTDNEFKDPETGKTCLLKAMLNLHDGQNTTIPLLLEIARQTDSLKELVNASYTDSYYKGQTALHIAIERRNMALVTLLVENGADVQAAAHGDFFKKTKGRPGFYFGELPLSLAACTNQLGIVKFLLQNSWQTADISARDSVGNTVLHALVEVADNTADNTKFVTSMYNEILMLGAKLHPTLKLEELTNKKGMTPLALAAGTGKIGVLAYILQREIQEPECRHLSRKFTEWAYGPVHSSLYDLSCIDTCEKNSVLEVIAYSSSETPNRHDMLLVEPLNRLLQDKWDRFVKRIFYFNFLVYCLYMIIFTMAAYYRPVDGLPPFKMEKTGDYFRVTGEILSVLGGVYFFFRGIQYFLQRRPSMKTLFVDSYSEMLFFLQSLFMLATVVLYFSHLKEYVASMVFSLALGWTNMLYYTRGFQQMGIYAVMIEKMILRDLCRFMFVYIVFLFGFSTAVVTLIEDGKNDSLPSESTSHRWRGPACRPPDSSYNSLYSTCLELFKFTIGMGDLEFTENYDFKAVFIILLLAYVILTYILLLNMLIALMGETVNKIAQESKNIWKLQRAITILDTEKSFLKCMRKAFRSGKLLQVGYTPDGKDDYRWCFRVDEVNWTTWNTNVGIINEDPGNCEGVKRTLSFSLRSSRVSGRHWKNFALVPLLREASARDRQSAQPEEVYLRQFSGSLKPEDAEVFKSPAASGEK

Compound: C[C@H](C(=O)NCc1cc(C(C)(C)C)nn1-c1ccc(Cl)cc1)c1ccc(NS(C)(=O)=O)c(F)c1 [Example 15, (S)-N-((3-tert-butyl-1-(4-chlorophenyl)-1H-pyrazol-5-yl)methyl)-2-(3-fluoro-4-(methylsulphonamido)phenyl)propanamide]
- Ki [1]: 2.5 nM
- Ki (hVR1 [2]): 2.1 nM
- inhibition at 5 µM (hVR1 [3]; read-out: IC50 (human being) hVR1 pH column: inhibition (as a percentage) @ 5 μM, inhibition determined at 5 μM): 14%

Compound: CC(C(=O)NCc1cc(C(C)(C)C)nn1C)c1ccc(NS(C)(=O)=O)c(F)c1 (stereo not shown) [Example 3, N-((3-tert-butyl-1-methyl-1H-pyrazol-5-yl)methyl)-2-(3-fluoro-4-(methylsulphonamido)phenyl)propanamide]
- inhibition at 5 µM ([1]; read-out: Ki (rat) Cap: inhibition (as a percentage) @ 5 μM, capsaicin, inhibition determined at 5 μM): 14%
- inhibition at 5 µM (hVR1 [2]): 12%
- IC50 (human being) hVR1 pH: result in words (NE / AG) (hVR1 [3]): NE

Compound: Cc1ccc(-n2nc(C(C)(C)C)cc2CNC(=O)C(C)c2ccc(NS(C)(=O)=O)c(F)c2)cc1 (stereo not shown) [Example 12, N-((3-tert-butyl-1-p-tolyl-1H-pyrazol-5-yl)methyl)-2-(3-fluoro-4-(methylsulphonamido)phenyl)propanamide]
- inhibition at 10 µM (hVR1 [3]): 40%

Compound: CC(C(=O)NCc1cc(C(C)(C)C)nn1-c1ccc(C(C)(C)C)cc1)c1ccc(NS(C)(=O)=O)c(F)c1 (stereo not shown) [Example 13, N-((3-tert-butyl-1-(4-tert-butylphenyl)-1H-pyrazol-5-yl)methyl)-2-(3-fluoro-4-(methylsulphonamido)phenyl)propanamide]
- Ki [1]: 25.9 nM
- Ki (hVR1 [2]): 75.2 nM

Compound: Cc1c(C(F)(F)F)nn(-c2cccc(Cl)c2)c1CNC(=O)C(C)c1ccc(CNS(C)(=O)=O)c(F)c1 (stereo not shown) [Example 134, N-((1-(3-chlorophenyl)-4-methyl-3-(trifluoromethyl)-1H-pyrazol-5-yl)methyl)-2-(3-fluoro-4-(methylsulfonamidmethyl)phenyl)propanamide]
- Ki (hVR1 [2]): 2.5 nM

Compound: C[C@H](C(=O)NCc1cc(C(C)(C)C)nn1-c1cccc(Cl)c1)c1ccc(NS(C)(=O)=O)c(F)c1 [Example 17, (S)-N-((3-tert-butyl-1-(3-chlorophenyl)-1H-pyrazol-5-yl)methyl)-2-(3-fluoro-4-(methylsulphonamido)phenyl)propanamide]
- inhibition at 10 µM (hVR1 [3]): 37%

Further lines, results first:

- Ki (hVR1 [2]): 114 nM
- IC50 (human being) hVR1 pH: result in words (NE / AG) (hVR1 [3]): NE
Compound: CC(C(=O)NCc1cc(C(C)(C)C)nn1-c1cccc(Cl)c1)c1ccc(N2CCCS2(=O)=O)c(F)c1 (stereo not shown) [Example 55, N-((3-tert-butyl-1-(3-chlorophenyl)-1H-pyrazol-5-yl)methyl)-2-[4-(1,1-dioxidoisothiazolidin-2-yl)-3-fluorophenyl]propanamide]

- inhibition at 5 µM (hVR1 [2]): 24%
Compound: CC(C)(C)c1nc(CNC(=O)Cc2cccc(F)c2)n(-c2cccc(Cl)c2)n1 [Example 135, N-((3-tert-butyl-1-(3-chlorophenyl)-1H-1,2,4-triazol-5-yl)methyl)-2-(3-fluorophenyl)acetamide]

- Ki (human being) Cap: result in words (NE / AG) (hVR1 [2]): AG
Compound: CC(C)(C)c1cc(CNC(=O)Nc2ccc(N3CCOCC3)c(F)c2)n(-c2cccc(Cl)c2)n1 [Example 144, 1-((3-tert-butyl-1-(3-chlorophenyl)-1H-pyrazol-5-yl)methyl)-3-(3-fluoro-4-morpholinphenyl)urea]

- Ki (human being) Cap: result in words (NE / AG) (hVR1 [2]): AG
Compound: CC(C)(C)c1cc(CNC(=O)Nc2cccc(F)c2)n(-c2ccc(F)cc2)n1 [Example 122, 1-((3-tert-butyl-1-(4-fluorophenyl)-1H-pyrazol-5-yl)methyl)-3-(3-fluorophenyl)urea]

- Ki (human being) Cap: result in words (NE / AG) (hVR1 [2]): AG
Compound: COc1c(F)cc(NC(=O)NCc2cc(C(C)(C)C)nn2-c2cccc(Cl)c2)cc1F [Example 61, 1-((3-tert-butyl-1-(3-chlorophenyl)-1H-pyrazol-5-yl)methyl)-3-(3,5-difluoro-4-methoxyphenyl)urea]

- Ki (hVR1 [2]): 16.3 nM
Compound: N-((1-(3-chlorophenyl)-3-cyclopropyl-1H-pyrazol-5-yl)methyl)-2-(3-fluoro-4-(methylsulfonylmethyl)phenyl)propanamide [Example 128]

- Ki (hVR1 [2]): 56 nM
Compound: CC(C)(C(=O)NCc1cc(C(F)(F)F)nn1-c1cccc(Cl)c1)c1cccc(F)c1 [Example 117, N-((1-(3-chlorophenyl)-3-(trifluoromethyl)-1H-pyrazol-5-yl)methyl)-2-(3-fluorophenyl)-2-methylpropanamide]
